Results as given in US20100048723A1, “Compositions and Methods for Preventing or Treating Obesity In Animals” (priority 2007, published 2010).
Marks after values point to notes of the source that are not given here.

System: canine genes
Assay: Canine cell culture genomic assay: modification of gene expression in vitro (Affymetrix canine gene chips)
Format: cell-based
Parameters: key: those genes that are modified by capsaicin are identified by an asterix (*)
Conditions: canine cell lines CCL34, CRL1430, CCL183, CTAC; up or down regulation
Description: We have compiled a database of substances known to modify the expression of various canine genes in canine cells in vitro according to the following methods provided below and previously described (see, e.g., U.S. 2006-0200320 Al).
Test substances are assayed in two concentrations using the following canine cell lines: CCL34 (kidney), CRL1430 (thymus), CCL183 (bone) (all obtained from the American Tissue Culture Collection) and CTAC (thyroid) (see, Measurement of NK Activity in Effector Cells Purified from Canine Peripheral Lymphocytes, Veterinary Immunology and Immunopathology, 35 (1993) 239-25 1). Briefly, cells are cultured in OptiCell chambers according to conventional methods and the next day treated with test substance. The solvent used at the higher of the two concentrations is used as a control. The following day the cells are harvested for genomic assay.
RNA is isolated from the canine cultures using commercially available methods, e.g., an RNAeasy Mini Kit (Qiagen, Valencia, Calif.) according to the manufacturers instructions and conventional methods. The quality of the isolated RNA is analyzed using a RNA 6000 Nano Assay and an Agilent 2100 Bioanalyzer. The procedure is performed according to the manufacturer's instructions provided in the Reagent Kit Guide (see Edition November 2003, by Agilent Technologies) with the following modifications: during gel preparation, rather than separating the filtered gel into aliquots of 65 uL each, the stock filtered gel is kept in the original microcentrifuge tube and the 65 uL is aliquoted as needed; while loading the RNA 6000 Nano Marker, 1 uL of RNase-free water (instead of RNA 6000 Nano Marker) is added to each sample well that will not contain sample. When loading the RNA 6000 Ladder and samples, heat denature the samples and RNA 6000 Ladder for an additional 30 seconds (total of 2.5 minutes) at 71° C.; with regard to “Starting the Chip Run”, choose the “Eukaryote Total RNA Nano” option from the assay menu.
Gene expression is measured for the treatment cell lines and controls using Affymetrix canine gene chips Canine-1 and Canine-2 according to the manufacturer's instructions. Gene expression data is determined to be either “up” or “down”-regulated for any given treatment. The decision on whether a gene is “up” or “down” is based on the fold change, which is calculated as treatment intensity/control intensity for each individual probe. […] Also, a probe is considered significant for further scrutiny if it is called as “present” in only one of the conditions being compared (treatment or control) and is “absent” or “marginal” in the other and the fold change is significant according to the software used. Probes that appear to be regulated in opposite directions in the two treatments are excluded from further analysis. The raw data is analyzed using GeneSpring version 7.0 (GS) software (Agilent Corporation) and validated using the R-Bioconductor (RB) freeware. Both software packages are used to compute probe intensities from the CEL files generated by the Affymetrix Instrument. The Present/Absent/Marginal calls per probe and P-values are computed using the R-Bioconductor and GeneSpring software separately.
Two schemes are used for data analysis. First: “across cell lines” and “within individual cell lines.” In the first scheme, genes are selected for scoring provided they are found to be significant and common across all cell-lines. The “across cell lines” yields the highest confidence data with minimum noise and may provide the best possible clues as to which genes are affected by individual ingredients. In the second scheme, only those genes that show a significant fold change in the two treatments according to both software packages within an individual cell lines are scored.
Table 1A provided hereinabove is a list of canine genes the expression of which is modified in vitro in the presence of various compounds. […]

COc1cc(CNC(=O)CCCCC=CC(C)C)ccc1O [capsaicin, 8-methyl-N-vanillyl-6-nonenamide]
expression of Complement component 4 modified in canine cells in vitro: Complement component 4 *
expression of Fragilis/homolog to rat interferon-inducible protein modified in canine cells in vitro: protein*
expression of Homolog to Homo sapiens interferon-induced 35-kDa protein modified in canine cells in vitro: kDa protein*
expression of L-Plastin/lymphocyte cytosolic protein 1 modified in canine cells in vitro: L-Plastin/lymphocyte cytosolic protein 1*
expression of α Cytochrome b558/cytochrome b-245 modified in canine cells in vitro: ^α Cytochrome b558/cytochrome b-245 *
expression of α Tubulin, 1 modified in canine cells in vitro: ^α Tubulin, 1 *
